Experimental data reported in patent US20240118281A1, “ANTICANCER COMPOUNDS AND USES THEREOF” (University of Florida Research Foundation, Incorporated, priority 2021, published 2024).
Values belong to the compound of their own block, whether it stands above or below them.

What was measured:
AGR2 [1] = biological target: T1, AGR2 (Homo sapiens, UniProt O95994); assay: Biotin-PyrDTDO/Streptavidin-agarose pulldown from treated cells; format: cell-based; design: expressed in transfected cells; conditions: T47D and BT474 cells, 100 μM, 16 h, FIG. 3C left
T1 sequence (O95994 21-175): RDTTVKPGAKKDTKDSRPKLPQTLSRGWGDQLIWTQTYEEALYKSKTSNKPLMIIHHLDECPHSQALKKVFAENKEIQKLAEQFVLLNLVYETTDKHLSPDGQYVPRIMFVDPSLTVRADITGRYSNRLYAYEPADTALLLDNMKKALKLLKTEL
Protocol: (§1) Cells were treated with Biotin-PyrDTDO with or without the pan-Caspase inhibitor Q-VD-OPH (MedChemExpress, Monmouth Junction, NJ) for 16 h in 10% FBS-DMEM, followed by the addition of 25 mM N-ethylmaleimide (NEM) (Thermo Scientific, Rockford, IL) for 20 min at 37° C. Cells were subsequently scraped directly into the media, washed twice with ice-cold PBS, and pelleted by centrifugation. Cells were extracted in buffer (20 mM HEPES (pH 7.4), 1 mM EDTA, 1mM EGTA, 5% Glycerol, 1 nM Microcystin, 1 mM Na3VO4, and 40 mM Na2H2P2O7) containing 1% Triton X-100. Samples were sonicated, followed by centrifugation for 20 min at 4° C. The supernatant was pre-cleared with Sepharose CL-6B (Amersham Biosciences AP, Uppsala, Sweden) for 2 h at 4° C. Pre-cleared samples were then incubated with Streptavidin (SA)-Agarose (Thermo Scientific, Rockford IL) and mixed on a Nutator for 24 h at 4° C. SA-Agarose was washed three times with extraction buffer containing 0.1% Triton X-100, followed by the addition of 2×-SDS Sample buffer containing 2 mM biotin. Samples were analyzed by immunoblot, silver stain, or probing with Streptavidin-Alkaline Phosphatase.

PDIA1 [2] = biological target: T2, PDIA1 (Homo sapiens, UniProt P07237); assay: In vitro binding assay with recombinant purified PDIA1; conditions: FIG. 3D
T2 sequence (P07237 18-508): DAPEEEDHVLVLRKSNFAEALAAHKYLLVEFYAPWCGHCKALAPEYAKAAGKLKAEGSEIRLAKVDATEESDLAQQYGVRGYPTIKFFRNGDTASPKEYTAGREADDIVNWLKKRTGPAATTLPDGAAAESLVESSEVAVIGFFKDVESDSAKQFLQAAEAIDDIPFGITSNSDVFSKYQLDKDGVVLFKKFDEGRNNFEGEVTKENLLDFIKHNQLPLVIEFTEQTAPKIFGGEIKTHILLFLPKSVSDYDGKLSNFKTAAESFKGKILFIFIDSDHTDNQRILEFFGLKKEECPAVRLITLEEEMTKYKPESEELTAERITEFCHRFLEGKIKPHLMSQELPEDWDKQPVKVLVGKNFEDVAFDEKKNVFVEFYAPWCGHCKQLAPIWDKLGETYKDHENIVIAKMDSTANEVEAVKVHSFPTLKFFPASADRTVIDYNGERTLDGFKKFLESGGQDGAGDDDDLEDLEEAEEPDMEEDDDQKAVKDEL
Protocol: (§2) Purified His6-AGR2 or His6-AGR2 C81S, as prepared above, or His6-AGR2 (PRO-580) or His6-AGR3 (PRO-242) obtained from ProSpec (New Brunswick NJ) were incubated with or without varying concentrations of the unlabeled DDA competitors, tcyDTDO or dMtcyDTDO, and 30 μM Biotin-GlyPyrDTDO or Biotin-PyrDTDO in buffer (20 mM HEPES (pH 7.4), 1 mM EDTA, 1 mM EGTA, 5% Glycerol, 1 nM Microcystin, 1 mM Na3VO4, and 40 mM Na2H2P2O7) containing 1% Triton-X 100 for 30 min at 37° C. […] Therefore, the two probes were used interchangeably. Reactions were stopped by boiling the samples in 2×-SDS-Sample Buffer containing 100 mM NEM for 10 min. Biotin-DDA labeling of protein was verified by blotting with Streptavidin-Alkaline Phosphatase (Rockland Immunochemicals, Inc., Limerick, PA). ERp44 (PRO-547) and PDIA1 (ENZ-262) were obtained from ProSpec and used in experiments examining the binding of these proteins to Biotin-PyrDTDO.

ERp44 [3] = biological target: T3, ERp44 (Homo sapiens, UniProt Q9BS26); assay: In vitro binding assay with recombinant purified ERp44; conditions: FIG. 3D
T3 sequence (Q9BS26 30-406): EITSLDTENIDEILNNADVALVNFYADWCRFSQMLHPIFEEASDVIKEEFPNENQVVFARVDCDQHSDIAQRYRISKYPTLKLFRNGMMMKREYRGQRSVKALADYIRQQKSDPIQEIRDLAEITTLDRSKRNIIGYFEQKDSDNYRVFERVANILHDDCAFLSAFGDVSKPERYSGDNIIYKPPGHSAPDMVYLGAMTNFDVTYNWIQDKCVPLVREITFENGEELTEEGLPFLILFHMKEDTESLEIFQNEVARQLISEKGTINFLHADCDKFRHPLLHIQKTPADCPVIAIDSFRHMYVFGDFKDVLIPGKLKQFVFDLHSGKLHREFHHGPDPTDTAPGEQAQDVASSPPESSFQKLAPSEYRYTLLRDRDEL
Protocol: as §2

PDIA1 [4] = biological target: T2, PDIA1; assay: Biotin-PyrDTDO/Streptavidin-agarose pulldown from treated cells; format: cell-based; design: endogenous in cells; host or cells: MDA-MB-468, BT474, T47D; conditions: for PDIA1 in Streptavidin-Agarose pulldown: 100 μM, 16 h
Protocol: as §1

ERp44 [5] = biological target: T3, ERp44; assay: as above; format: cell-based; design: endogenous in cells; host or cells: MDA-MB-468, BT474, T47D; conditions: for ERp44 in Streptavidin-Agarose pulldown: 100 μM, 16 h
Protocol: as §1

[6] = tested on: proteins in intact cells and purified proteins in vitro; assay: Preliminary studies of biotinylated DDA protein labeling
Protocol: as §2

ERp57 = biological target: T4, ERp57 (Homo sapiens, UniProt P30101); assay: Biotin-PyrDTDO/Streptavidin-agarose pulldown from treated cells; format: cell-based; conditions: FIG. 10A
T4 construct: endogenous in cells
T4 sequence (P30101 25-505): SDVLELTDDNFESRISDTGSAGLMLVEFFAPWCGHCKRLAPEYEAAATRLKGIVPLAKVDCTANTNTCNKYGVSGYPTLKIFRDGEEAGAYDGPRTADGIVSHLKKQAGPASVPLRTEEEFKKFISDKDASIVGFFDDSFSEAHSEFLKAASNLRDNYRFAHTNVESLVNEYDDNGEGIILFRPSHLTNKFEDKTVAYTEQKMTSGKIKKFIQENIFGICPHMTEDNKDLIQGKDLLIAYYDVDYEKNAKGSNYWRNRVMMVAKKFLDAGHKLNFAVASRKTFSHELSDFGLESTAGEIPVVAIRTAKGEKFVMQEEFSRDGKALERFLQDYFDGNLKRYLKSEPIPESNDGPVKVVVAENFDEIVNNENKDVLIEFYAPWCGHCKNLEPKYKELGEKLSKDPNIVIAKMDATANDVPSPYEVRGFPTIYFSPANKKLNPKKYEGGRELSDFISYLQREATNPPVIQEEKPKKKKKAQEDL
Protocol: as §1

ERp5 = biological target: T5, ERp5 (Homo sapiens, UniProt Q15084); assay: as above; format: cell-based; conditions: FIG. 10A
T5 construct: endogenous in cells
T5 sequence (Q15084 20-440): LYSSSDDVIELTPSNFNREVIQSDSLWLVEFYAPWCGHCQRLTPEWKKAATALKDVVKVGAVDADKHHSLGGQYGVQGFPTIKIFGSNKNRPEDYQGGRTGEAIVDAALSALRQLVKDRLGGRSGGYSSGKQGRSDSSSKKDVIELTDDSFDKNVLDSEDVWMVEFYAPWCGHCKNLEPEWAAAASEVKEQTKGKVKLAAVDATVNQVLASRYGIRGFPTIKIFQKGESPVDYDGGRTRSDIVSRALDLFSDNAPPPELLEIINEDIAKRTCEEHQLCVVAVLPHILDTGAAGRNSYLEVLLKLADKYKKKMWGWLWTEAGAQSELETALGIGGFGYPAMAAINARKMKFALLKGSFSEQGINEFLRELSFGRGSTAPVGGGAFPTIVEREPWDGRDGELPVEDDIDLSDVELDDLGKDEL
Protocol: as §1

[7] = tested on: MDA-MB-468 and BT474 cells; assay: Immunoblot analysis of treated cells (FIG. 9D); format: cell-based; conditions: 24 h
Text: The BT20, BT474, BT549, MCF7, MDA-MB-231, MDA-MB-436, MDA-MB-468, HCC1143, HCC1500, HCC1569, HCC1937, HCC1954, Hs578t, and T47D cells lines were purchased from American Type Culture Collection (ATCC) (Manassas, VA). The HCI-001 cell line was derived from an ER-/PR-/HER2- patient-derived xenograft originally isolated from a patient as described previously (DeRose Y S, et al. Nat Med 2011; 17: 1514-1520). The HCI-001/LVM2 model was derived from the HCI-001 cell line by performing two rounds of selection for liver metastasis, as described previously (Wang M, et al. Cell Death Discovery 2019; 5: 153). Cell lines were grown in Dulbecco's Modified Eagle's Medium (GE Healthcare Life Sciences, Logan, UT) containing 10% fetal bovine serum (10% FBS—DMEM) in a humidified incubator with 5% CO2 at 37° C. Cell lysates were prepared as described previously (Law B K, et al. Mol Cell Biol. 2002; 22: 8184-8198). […]

C81S AGR2 mutant = biological target: T6, C81S AGR2 mutant (Homo sapiens, UniProt O95994, C81S); assay: DDA-AGR2 binding assay, C81S mutant; conditions: FIG. 2D
T6 construct: made in house; host or cells: E. coli BL21(DE3), pET-45b(+)
T6 sequence (O95994 21-175 C81S): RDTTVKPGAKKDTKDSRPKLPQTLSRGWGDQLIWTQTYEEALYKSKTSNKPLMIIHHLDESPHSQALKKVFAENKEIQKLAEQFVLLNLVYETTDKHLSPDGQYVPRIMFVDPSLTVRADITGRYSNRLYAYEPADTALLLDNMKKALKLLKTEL
Protocol: Total RNA from BT474 cells was extracted with TRIzol Reagent (Invitrogen, Waltham, MA) according to the manufacturer's protocol. Total cellular RNA was used to synthesize first-strand cDNA by using the PCR conditions listed: 25° C. for 10 min, 42° C. for 30 min, and 95° C. for 5 min. PCR was subsequently performed using the following AGR2 primers: 5′-[…]-3′ and 5′-[…]-3′. The PCR fragment encoding AGR2 was subsequently digested with BamHI and SnaBI and cloned into the 5′ BamHI and 3′ SnaBI sites of pMXs-IRES-Blasticidin. The AGR2/pMXs-IRES-Blasticidin vector was used as a template for PCR reactions using the following AGR2 primers to amplify the DNA sequence downstream of the AGR2 signal sequence and to add 5′-BamHI and 3′-SalI sites: 5′-[…]-3′ and 5′-[…]-3′. The PCR fragment was digested with BamHI and SalI and cloned into the 5′ BamHI and 3′ SalI sites of pET-45b(+) (Novagen Burlington, MA). QuikChange mutagenesis was performed to produce the C81S mutation of AGR2 using the follow primers: 5′- […]-3′ and 5′-[…]-3′. The C81S mutation of AGR2 was verified by sequencing.
Competent BL21(DE3) cells were transformed with either the AGR2/pET-45b(+) or AGR2 C81S/pET-45b(+) vectors. Protein expression was induced by the addition of 50 µM Isopropyl β-D-1-thiogalactopyranoside (Fisher Scientific, Fair Lawn, NJ) to bacterial cell cultures for 2.5 hours and shaking at 37° C. […]

AGR3 = biological target: T7, AGR3 (Homo sapiens, UniProt Q8TD06); assay: DDA binding assay with AGR3; conditions: FIG. 2D
T7 construct: His6 (N); purchased ProSpec PRO-242
T7 sequence (Q8TD06 22-166): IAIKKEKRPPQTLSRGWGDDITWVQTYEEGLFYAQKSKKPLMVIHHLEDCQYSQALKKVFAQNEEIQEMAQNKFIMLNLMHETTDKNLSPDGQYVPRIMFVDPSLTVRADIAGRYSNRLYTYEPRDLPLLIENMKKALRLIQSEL
Protocol: as §2

AGR2 [8] = biological target: T1, AGR2; assay: DDA-AGR2 binding assay, Streptavidin-Alkaline Phosphatase blot; design: made in house; host or cells: E. coli BL21(DE3), pET-45b(+); conditions: 37° C., non-reducing SDS-PAGE, FIG. 2B
Protocol: Competent BL21(DE3) cells were transformed with either the AGR2/pET-45b(+) or AGR2 C81S/pET-45b(+) vectors. Protein expression was induced by the addition of 50 µM Isopropyl β-D-1-thiogalactopyranoside (Fisher Scientific, Fair Lawn, NJ) to bacterial cell cultures for 2.5 hours and shaking at 37° C. Bacterial cells were subsequently pelleted and dissolved in Mouse Tonicity Phosphate Buffered Saline (MTPBS) containing 1% Triton X-100 and sonicated for 20 seconds on ice, followed by centrifugation for 10 min at 4° C. to pellet cell debris. The supernatant was transferred to a new tube, followed by the addition of TALON Resin (Clontech, Mountain View, CA) and mixing on a Nutator for 30 min at 4° C. The TALON Resin was pelleted by centrifugation and washed twice with MTPBS and twice with MTPBS containing 30 mM Imidazole. Protein bound to the TALON Resin was eluted with 400 mM Imidazole and precipitated with 60% saturated ammonium sulfate. The precipitated protein was pelleted by centrifugation, dissolved in MTPBS containing 1 mM DTT and 1 mM EDTA, and subsequently dialyzed against a solution of MTPBS containing 10 μM DTT and 30% Glycerol.
as §2

[9] = tested on: HCI-001/LVM2 breast tumors and associated liver metastases; assay: HCI-001/LVM2 breast tumor liver metastasis study, H&E staining of livers; format: in vivo, mice; conditions: 20 mg/kg oral gavage once daily, four consecutive days; necrosis not observed in vehicle treated tumors
Protocol: Breast cancer liver metastasis was initiated in NOD-SCID-gamma (NSG) mice obtained from Jackson Laboratories (Bar Harbor, ME) by injecting 1×10^6 cancer cells into the #4 mammary fat pads as described previously (Wang M, et al. Cell Death Discovery 2019; 5: 153). Mice bearing HCI-001/LVM2 breast tumors were treated once daily for four consecutive days with 20 mg/kg tcyDTDO by oral gavage and livers were collected. Animals bearing HER2+ BT474 tumors were treated with the vehicle or 20 mg/kg dMtcyDTDO or dFtcyDTDO by intraperitoneal injection for four consecutive days. Tissue samples fixed in 4% paraformaldehyde/PBS and paraffin-embedded were sectioned and stained with hematoxylin and eosin (H&E) by the University of Florida Molecular Pathology Core (https://molecular.pathology.ufl.edu/).

[10] = MDA-MB-468 cells, FIG. 3C right
[11] = T47D and BT474 cells, FIG. 3C left

AGR2 in Streptavidin-Agarose pulldown (AGR2 [1]): isolated
Labeling of PDIA1 by biotinylated DDA (PDIA1 [2]): labeled ERp44 and PDIA1
Labeling of ERp44 by biotinylated DDA (ERp44 [3]): labeled ERp44 and PDIA1
PDIA1 in additional pulldown experiments (PDIA1 [4]; FIG. 10A): detected
PDIA1 in Streptavidin-Agarose pulldown (PDIA1 [4]; [10]): affinity purified ERp44 and PDIA1
PDIA1 in Streptavidin-Agarose pulldown (PDIA1 [4]; [11]): isolated
ERp44 in additional pulldown experiments (ERp44 [5]; FIG. 10A): detected
ERp44 in Streptavidin-Agarose pulldown (ERp44 [5]; [10]): affinity purified ERp44 and PDIA1
ERp44 in Streptavidin-Agarose pulldown (ERp44 [5]; [11]): isolated
ERp57 in additional pulldown experiments (ERp57): ERp57 and ERp5 were not
ERp5 in additional pulldown experiments (ERp5): ERp57 and ERp5 were not
Compound: O=C1N[C@H]2[C@H](CS[C@H]2CCCCC(=O)N2C[C@@H]3CS(=O)(=O)SC[C@H]3C2)N1 (mixture of isomers) [Biotin-PyrDTDO, (3aS,4S,6aR)-4-(5-((4aR,7aR) and (4aS,7aS)-2,2-dioxidotetrahydro-1H-[1,2]dithiino[4,5-c]pyrrol-6(4H)-yl)-5-oxopentyptetrahydro-1H-thieno[3,4-d]imidazol-2(3H)-one]
Labeling of proteins, comparison of the two biotinylated probes [6]: indistinguishable labeling of proteins in intact cells and purified proteins in vitro

Compound: CC(C)(C)OC(=O)N1C[C@@H]2CS(=O)(=O)SC[C@H]2C1 (racemic) [(±)-BocPyrDTDO, tert-Butyl-(4aS,7aS)- and (4aR,7aR)-tetrahydro-1H-[1,2]dithiino[4,5-e]pyrrole-6(4H)-carboxylate 2,2-dioxide]
Biological activity and potency compared with DTDO [7]: biologically active and showed a potency similar to DTDO

Labeling of C81S AGR2 mutant by biotinylated DDA (C81S AGR2 mutant): not labeled
Compound: O=C(CCCC[C@@H]1SC[C@@H]2NC(=O)N[C@@H]21)NCC(=O)N1C[C@@H]2CS(=O)(=O)SC[C@H]2C1 (racemic) [Biotin-GlyPyrDTDO, N-(2-((4aS,7aS)- and (4aR,7aR)-2,2-Dioxidotetrahydro-1H-[1,2]dithiino[4,5-c]pyrrol-6(4H)-yl)-2-oxoethyl)-5-((3aS,4S,6aR)-2-oxohexahydro-1H-thieno[3,4-d]imidazol-4-yl)pentanamide]
Labeling of AGR3 by biotinylated DDA (AGR3): also labeled
Labeling of AGR2 by biotinylated DDA (AGR2 [8]): labeled AGR2 in a concentration-dependent manner
Labeling of proteins, comparison of the two biotinylated probes [6]: indistinguishable labeling of proteins in intact cells and purified proteins in vitro

Compound: O=S1(=O)CC2CCCCC2CS1 (stereo not drawn) [tcyDTDO]
Liver metastases, H&E histology [9]: exhibited central necrosis
